# According to US12252488B2 (Nimbus Saturn, Inc., priority 2021, dated 2025):
# Target: T1, HPK1 (Homo sapiens, UniProt Q92918)
# T1 construct: purchased Invitrogen
# Test: HPK1 biochemical enzyme assay (microfluidic mobility shift assay)
# Conditions: 1000 uM (1 mM) ATP; Caliper mobility shift; 1.5 nM HPK1; 30 min preincubation; read-out: HPK1 1000UMATP caliper IC50
# Procedure, shortened: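 Microfluidic mobility-shift readout with 1.5 nM HPK1 in pH 7.4 buffer; compounds (ten-point curves, top 3 μM final) preincubated 30 min with enzyme/substrate. Reaction started with 1 mM ATP and 1 μM substrate plus 5 mM MgCl2, run 60 min at RT. IC50 values binned into activity classes.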
# T1 sequence (Q92918 whole entry): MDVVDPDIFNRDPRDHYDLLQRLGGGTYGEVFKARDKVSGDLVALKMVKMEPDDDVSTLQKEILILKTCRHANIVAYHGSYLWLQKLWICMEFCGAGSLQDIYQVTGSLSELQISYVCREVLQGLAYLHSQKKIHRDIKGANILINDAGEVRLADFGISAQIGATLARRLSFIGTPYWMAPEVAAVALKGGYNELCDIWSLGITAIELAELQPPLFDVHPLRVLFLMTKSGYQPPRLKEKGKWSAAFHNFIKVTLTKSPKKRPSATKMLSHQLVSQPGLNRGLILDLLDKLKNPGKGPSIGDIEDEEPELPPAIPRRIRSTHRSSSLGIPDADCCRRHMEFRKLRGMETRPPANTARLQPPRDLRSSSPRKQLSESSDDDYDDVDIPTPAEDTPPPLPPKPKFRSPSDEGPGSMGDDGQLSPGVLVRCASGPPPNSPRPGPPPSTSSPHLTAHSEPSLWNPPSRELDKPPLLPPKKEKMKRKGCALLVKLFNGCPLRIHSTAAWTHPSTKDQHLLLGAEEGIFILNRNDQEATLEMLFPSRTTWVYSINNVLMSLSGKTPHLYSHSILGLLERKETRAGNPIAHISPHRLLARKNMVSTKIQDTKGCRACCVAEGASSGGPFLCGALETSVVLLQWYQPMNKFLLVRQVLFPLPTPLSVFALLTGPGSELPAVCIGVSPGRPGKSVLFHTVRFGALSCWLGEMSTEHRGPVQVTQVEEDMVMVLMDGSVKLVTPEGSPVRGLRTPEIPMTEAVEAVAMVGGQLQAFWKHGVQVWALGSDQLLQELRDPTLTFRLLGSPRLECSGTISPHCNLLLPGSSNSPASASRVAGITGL
row,Structure (SMILES),IC50
1,"O=C(c1ccc(-c2cc(Nc3ccc(N4CCC(O)CC4)cn3)c3c(=O)[nH]ccc3n2)c(F)c1)N1CC2CCC1C2 (stereo not shown) [I-137, 2-[4-(3-azabicyclo [2.2.1]heptane-3-carbonyl) 2-fluoro-phenyl]-4-[[5-(4-hydroxy-1-piperidyl)-2-pyridyl]amino]-6H-1,6-naphthyridin-5-one]",≤ 100 nM
2,"O=C(c1ccc(-c2cc(Nc3ccc(N4CCC(O)CC4)cn3)c3c(=O)[nH]ccc3n2)c(F)c1)N1CC2C(C1)C2(F)F (stereo not shown) [I-138, 2-[4-(6,6-difluoro-3-azabicyclo [3.1.0]hexane-3-carbonyl)-2-fluoro-phenyl]-4-[[5-(4-hydroxy-1-piperidyl)-2-pyridyl]amino]-6H-1,6-naphthyridin-5-one]",100 to 1000 nM
3,"O=C(NC1CCCCC1)c1ccc(-c2cc(Nc3ccc(N4CCC(O)CC4)cn3)c3c(=O)[nH]ccc3n2)c(F)c1 [I-139, N-cyclohexyl-3-fluoro-4-[4-[[5-(4-hydroxy-1-piperidyl)-2-pyridyl]amino]-5-oxo-6H-1,6-naphthyridin-2-yl] benzamide]",≤ 100 nM
4,"O=C(c1ccc(-c2cc(Nc3ccc(N4CCC(O)CC4)cn3)c3c(=O)[nH]ccc3n2)c(F)c1)N1CCC(O)CC1 [I-140, 2-[2-fluoro-4-(4-hydroxy-piperidine-1-carbonyl)phenyl]-4-[[5-(4-hydroxy-1-piperidyl)-2-pyridyl]amino]-6H-1,6-naphthyridin-5-one]",≤ 100 nM
5,"O=C(c1ccc(-c2cc(Nc3ccc(N4CCC(O)CC4)cn3)c3c(=O)[nH]ccc3n2)c(F)c1)N1CCCCC1CO (stereo not shown) [I-141, 2-[2-fluoro-4-[2-(hydroxy-methyl)piperidine-1-carbonyl]phenyl]-4-[[5-(4-hydroxy-1-piperidyl)-2-pyridyl]amino]-6H-1,6-naphthyridin-5-one]",> 1000 nM
6,"O=C(c1ccc(-c2cc(Nc3ccc(N4CCC(O)CC4)cn3)c3c(=O)[nH]ccc3n2)c(F)c1)N1CC2CCC(C1)O2 [I-142, 2-[2-fluoro-4-(8-oxa-3-azabicyclo [3.2.1]octane-3-carbonyl)phenyl]-4-[[5-(4-hydroxy-1-piperidyl)-2-pyridyl]amino]-6H-naphthyridin-5-one]",≤ 100 nM
7,"CN(C(=O)c1ccc(-c2cc(Nc3ccc(N4CCC(O)CC4)cn3)c3c(=O)[nH]ccc3n2)c(F)c1)C1CCCCC1 [I-143, N-cyclohexyl-3-fluoro-4-[4-[[5-(4-hydroxy-1-piperidyl)-2-pyridyl]amino]-5-oxo-6H-1,6-naphthyridin-2-yl]-N-methyl-benzamide]",> 1000 nM
8,"O=c1[nH]ccc2nc(N3CCC3)cc(Nc3ccc(N4CCC(O)CC4)cn3)c12 [I-144, 2-(azetidin-1-yl)-4-[[5-(4-hydroxy-1-piperidyl)-2-pyridyl]amino]-6H-1,6-naphthyridin-5-one]",> 1000 nM
9,"O=C(c1ccc(-c2cc(Nc3ccc(N4CCC(O)CC4)cn3)c3c(=O)[nH]ccc3n2)c(F)c1)N1CCCC(O)C1 (stereo not shown) [I-145, 2-[2-fluoro-4-(3-hydroxy-piperidine-1-carbonyl)phenyl]-4-[[5-(4-hydroxy-1-piperidyl)-2-pyridyl]amino]-6H-1,6-naphthyridin-5-one]",> 1000 nM
10,"Cc1c[nH]c(=O)c2c(Nc3ccc(N4CCC(O)CC4)cn3)cc(-c3ccc(C(=O)N4CCCCC4)cc3F)nc12 [I-146, 2-[2-fluoro-4-(piperidine-1-carbonyl)phenyl]-4-[[5-(4-hydroxy-1-piperidyl)-2-pyridyl]amino]-8-methyl-6H-1,6-naphthyridin-5-one]",100 to 1000 nM
11,"O=C(c1ccc(-c2cc(Nc3ccc(N4CCC(O)CC4)cn3)c3c(=O)[nH]ccc3n2)c(F)c1)N1CCCC1CO (stereo not shown) [I-147, 2-[2-fluoro-4-[2-(hydroxy-methyl)pyrrolidine-1-carbonyl]phenyl]-4-[[5-(4-hydroxy-1-piperidyl)-2-pyridyl]amino]-6H-1,6-naphthyridin-5-one]",100 to 1000 nM
12,"O=C(c1ccc(-c2cc(Nc3ccc(N4CCC5(CCOCC5)CC4)cn3)c3c(=O)[nH]ccc3n2)c(F)c1)N1CCCCC1 [I-148, 2-[2-fluoro-4-(piperidine-1-carbonyl)phenyl]-4-[[5-(3-oxa-9-azaspiro [5.5]undecan-9-yl)-2-pyridyl]amino]-6H-naphthyridin-5-one]",> 1000 nM
13,"CC(C)(C#N)c1ccc(-c2cc(Nc3ccc(N4CCC(O)CC4)cn3)c3c(=O)[nH]ccc3n2)c(F)c1 [I-149, 2-[3-fluoro-4-[4-[[5-(4-hydroxy-1-piperidyl)-2-pyridyl]amino]-5-oxo-6H-1,6-naphthyridin-2-yl]phenyl]-2-methyl-propane-nitrile]",100 to 1000 nM
14,"O=c1[nH]ccc2nc(-c3cc(CN4CCCCC4)ccc3F)cc(Nc3ccc(N4CCC(O)CC4)cn3)c12 [I-150, 2-[2-fluoro-5-(1-piperidyl-methyl)phenyl]-4-[[5-(4-hydroxy-1-piperidyl)-2-pyridyl]amino]-6H-1,6-naphthyridin-5-one]",100 to 1000 nM
15,"O=C(Nc1ccc(-c2cc(Nc3ccc(N4CCC(O)CC4)cn3)c3c(=O)[nH]ccc3n2)c(F)c1)C1CCC1 [I-152, N-[3-fluoro-4-[4-[[5-(4-hydroxy-1-piperidyl)-2-pyridyl]amino]-5-oxo-6H-1,6-naphthyridin-2-yl]phenyl] cyclobutane-carboxamide]",100 to 1000 nM
16,CC1(C(=O)Nc2ccc(-c3cc(Nc4ccc(N5CCC(O)CC5)cn4)c4c(=O)[nH]ccc4n3)c(F)c2)CC1 [I-153],100 to 1000 nM

row,Structure (SMILES),IC50
1,"O=C(Nc1ccc(-c2cc(Nc3ccc(N4CCC(O)CC4)cn3)c3c(=O)[nH]ccc3n2)c(F)c1)C1CCCC1 [I-154, N-[3-fluoro-4-[4-[[5-(4-hydroxy-1-piperidyl)-2-pyridyl]amino]-5-oxo-6H-1,6-naphthyridin-2-yl]phenyl] cyclo-pentane carboxamide]",100 to 1000 nM
2,"O=C(c1ccc(-c2cc(Nc3ccc(N4CCOCC4)cn3)c3c(=O)[nH]ccc3n2)c(F)c1)N1CCCCC1 [I-155, 2-[2-fluoro-4-(piperidine-1-carbonyl)phenyl]-4-[(5-morpholino-2-pyridyl)amino]-6H-1,6-naphthyridin-5-one]",> 1000 nM
3,COc1cc(-c2cc(Nc3ccc(N4CCNCC4)cn3)c3c(=O)[nH]ccc3n2)c(F)cc1C(=O)N1CCCCC1 [I-157],> 1000 nM
4,"Cc1c[nH]c(=O)c2c(Nc3ccc(N4CCC(O)CC4)cn3)cc(-c3ccc(NC(=O)C4CCCCC4)cc3F)nc12 [I-158, N-[3-fluoro-4-[4-[[5-(4-hydroxy-1-piperidyl)-2-pyridyl]amino]-8-methyl-5-oxo-6H-1,6-naphthyridin-2-yl]phenyl] cyclohexane carboxamide]",≤ 100 nM
5,"O=C(Nc1ccc(-c2cc(Nc3ccc(N4CCOCC4)cn3)c3c(=O)[nH]ccc3n2)c(F)c1)C1CCCCC1 [I-159, N-[3-fluoro-4-[4-[(5-morpholino-2-pyridyl)amino]-5-oxo-6H-1,6-naphthyridin-2-yl]phenyl] cyclohexane carboxamide]",≤ 100 nM
6,"O=C(Nc1ccc(-c2cc(Nc3ccc(C(=O)N4CCCC4)cc3)c3c(=O)[nH]ccc3n2)c(F)c1)C1CCCCC1 [I-160, N-[3-fluoro-4-[5-oxo-4-[4-(pyrrolidine-1-carbonyl)anilino]-6H-1,6-naphthyridin-2-yl]phenyl] cyclohexane carboxamide]",≤ 100 nM
7,"COc1cc(-c2cc(Nc3ccc(N4CCC(O)CC4)cn3)c3c(=O)[nH]cc(C)c3n2)c(F)cc1C(=O)N1CCCCC1 [I-163, 2-[2-fluoro-5-methoxy-4-(piperidine-1-carbonyl)phenyl]-4-[[5-(4-hydroxy-1-piperidyl)-2-pyridyl]amino]-8-methyl-6H-1,6-naphthyridin-5-one]",> 1000 nM
8,"COc1cc(-c2cc(Nc3ccc(N4CCOCC4)cn3)c3c(=O)[nH]ccc3n2)c(F)cc1C(=O)N1CCCCC1 [I-164, 2-[2-fluoro-5-methoxy-4-(piperidine-1-carbonyl)phenyl]-4-[(5-morpholino-2-pyridyl)amino]-6H-1,6-naphthyridin-5-one]",≤ 100 nM
9,"COc1cc(-c2cc(Nc3ccc(C(=O)N4CCCC4)cc3)c3c(=O)[nH]ccc3n2)c(F)cc1C(=O)N1CCCCC1 [I-165, 2-[2-fluoro-5-methoxy-4-(piperidine-1-carbonyl)phenyl]-4-[4-(pyrrolidine-1-carbonyl)amino]-6H-1,6-naphthyridin-5-one]",100 to 1000 nM
10,"COc1c(C(=O)N2CCCCC2)ccc(-c2cc(Nc3ccc(N4CCC(O)CC4)cn3)c3c(=O)[nH]ccc3n2)c1F [I-166, 2-[2-fluoro-3-methoxy-4-(piperidine-1-carbonyl)phenyl]-4-[[5-(4-hydroxy-1-piperidyl)-2-pyridyl]amino]-6H-1,6-naphthyridin-5-one]",≤ 100 nM
11,"Cc1cc(F)c(-c2cc(Nc3ccc(N4CCC(O)CC4)cn3)c3c(=O)[nH]ccc3n2)cc1C(=O)N1CCCCC1 [I-167, 2-[2-fluoro-4-methyl-5-(piperidine-1-carbonyl)phenyl]-4-[[5-(4-hydroxy-1-piperidyl)-2-pyridyl]amino]-6H-1,6-naphthyridin-5-one]",≤ 100 nM
12,"Cc1n[nH]c2cc(F)c(-c3cc(Nc4ccc(N5CCNCC5)cn4)c4c(=O)[nH]ccc4n3)cc12 [I-168, 2-(6-fluoro-3-methyl-1H-indazol-5-yl)-4-[[5-piperazin-1-yl-2-pyridyl)amino]-6H-1,6-naphthyridin-5-one]",≤ 100 nM
13,"COc1cc(-c2cc(Nc3ccc(N4CCC(F)(F)CC4)cn3)c3c(=O)[nH]ccc3n2)c(F)cc1C(=O)N1CCCCC1 [I-169, 4-[[5-(4,4-difluoro-1-piperidyl)-2-pyridyl]amino]-2-[2-fluoro-5-methoxy-4-(piperidine-1-carbonyl)phenyl]-6H-1,6-naphthyridin-5-one]",100 to 1000 nM
14,"COc1cc(-c2cc(Nc3ccc(N4C[C@H]5CC[C@@H](C4)O5)cn3)c3c(=O)[nH]ccc3n2)c(F)cc1C(=O)N1CCCCC1 [I-170, 2-[2-fluoro-5-methoxy-4-(piperidine-1-carbonyl)phenyl]-4-[[5-[(1R,5S)-8-oxa-3-azabicyclo [3.2.1]octan-3-yl]-2-pyridyl]amino]-6H-1,6-naphthyridin-5-one]",100 to 1000 nM
15,"O=c1[nH]ccc2nc(-c3cccc(CN4CCOCC4)c3F)cc(Nc3ccc(N4CCC(O)CC4)cn3)c12 [I-171, 2-[2-fluoro-3-(morpholino-methyl)phenyl]-4-[[5-(4-hydroxy-1-piperidyl)-2-pyridyl]amino]-6H-1,6-naphthyridin-5-one]",100 to 1000 nM
